Laboratory results published in ChEMBL document CHEMBL3994576, “Targeting Alzheimer's disease by investigating previously unexplored chemical space surrounding the cholinesterase inhibitor donepezil” (Eur J Med Chem, 2017).

What was measured:
[1] = target: Acetylcholinesterase (Electrophorus electricus, UniProt O42275); assay: Inhibition of electric eel AChE using acetylthiocholine iodide as substrate by Ellman's method
[2] = system: SH-SY5Y; assay: cells; type: ADME, cell-based; conditions: Homo sapiens, 72 h;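 also: cytotoxicity read out with an SRB assay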
[3] = Elimination half life in human; type: ADME; conditions: read-out: beta t1/2
[4] = clinical; conditions: human, in vivo, po

Chain of Acetylcholinesterase (O42275 whole entry): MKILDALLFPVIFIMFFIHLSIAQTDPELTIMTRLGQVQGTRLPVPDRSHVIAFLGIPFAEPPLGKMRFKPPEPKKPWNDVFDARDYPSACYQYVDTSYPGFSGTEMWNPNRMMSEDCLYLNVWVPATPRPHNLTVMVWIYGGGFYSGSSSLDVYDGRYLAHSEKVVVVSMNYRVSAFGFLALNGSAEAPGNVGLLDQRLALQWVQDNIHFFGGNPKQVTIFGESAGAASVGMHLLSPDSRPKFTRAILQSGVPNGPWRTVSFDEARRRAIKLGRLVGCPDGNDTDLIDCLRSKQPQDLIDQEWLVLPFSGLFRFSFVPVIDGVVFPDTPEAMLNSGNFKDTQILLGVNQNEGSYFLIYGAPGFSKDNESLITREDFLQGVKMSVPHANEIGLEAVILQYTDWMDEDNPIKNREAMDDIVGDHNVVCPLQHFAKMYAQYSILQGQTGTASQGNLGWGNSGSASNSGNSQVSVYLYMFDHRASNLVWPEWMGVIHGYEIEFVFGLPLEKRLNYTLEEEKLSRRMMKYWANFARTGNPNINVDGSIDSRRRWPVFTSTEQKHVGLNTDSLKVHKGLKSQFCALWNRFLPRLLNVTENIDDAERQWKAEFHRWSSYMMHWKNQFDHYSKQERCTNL

| Compound | IC50 [1] [µM] | IC50 [2] [µM] | half-life [3] [h] | bioavailability [4] [%] |
| --- | --- | --- | --- | --- |
| COc1cc2c(cc1OC)C(=O)/C(=C/C1CCN(Cc3ccccc3)CC1)C2 | 0.42 | 3.99 | – | – |
| COc1cc2c(cc1OC)C(=O)/C(=C/C1CCCCN1Cc1ccccc1)C2 (stereo not given) | 0.75 | – | – | – |
| COc1cc2c(cc1OC)C(=O)C(C[C@@H]1CCCN1Cc1ccccc1)C2 (stereo not given in full) | 3.16 | – | – | – |
| COc1cc2c(cc1OC)C(=O)C(C(=O)OCC1CCN(Cc3ccccc3)C1)C2 (stereo not given) | > 10 | – | – | – |
| COc1cc2c(cc1OC)C(=O)C(CC1CCCN(Cc3ccccc3)C1)C2 (stereo not given) | 0.51 | 66.7 | – | – |
| COc1cc2c(cc1OC)C(=O)/C(=C/C1CCCN1Cc1ccccc1)C2 (stereo not given) | > 10 | 19 | – | – |
| COc1cc2c(cc1OC)C(=O)C(CC1CCN1Cc1ccccc1)C2 (stereo not given) | > 10 | 58.5 | – | – |
| COc1cc2c(cc1OC)C(=O)C(C(=O)OCC1CCCN(Cc3ccccc3)C1)C2 (stereo not given) | > 10 | – | – | – |
| COc1cc2c(cc1OC)C(=O)C(C(=O)OCC1CCN1Cc1ccccc1)C2 (stereo not given) | > 10 | – | – | – |
| COc1cc2c(cc1OC)C(=O)/C(=C/C1CN(Cc3ccccc3)C1)C2 | 0.7 | 1.26 | – | – |
| COc1cc2c(cc1OC)C(=O)/C(=C/C1CCCN(Cc3ccccc3)C1)C2 (stereo not given) | 1.18 | 4.72 | – | – |
| COc1cc2c(cc1OC)C(=O)C(CC1CCN(Cc3ccccc3)C1)C2 (stereo not given) | 1.74 | – | – | – |
| COc1cc2c(cc1OC)C(=O)C(OC(=O)C1CCN(Cc3ccccc3)CC1)C2 (stereo not given) | – | > 100 | – | – |
| COc1cc2c(cc1OC)C(=O)C(C(=O)OC1CCN(Cc3ccccc3)CC1)C2 (stereo not given) | 3.03 | > 100 | – | – |
| COc1cc2c(cc1OC)C(=O)C(C(=O)OCC1CCCN1Cc1ccccc1)C2 (stereo not given) | > 10 | – | – | – |
| COc1cc2c(cc1OC)C(=O)/C(=C/C1CCN(Cc3ccccc3)C1)C2 (stereo not given) | 0.52 | 6.59 | – | – |
| COc1cc2c(cc1OC)C(=O)C(CC1CN(Cc3ccccc3)C1)C2 (stereo not given) | 1.13 | 8.01 | – | – |
| COc1cc2c(cc1OC)C(=O)C(C(=O)OCC1CCCCN1Cc1ccccc1)C2 (stereo not given) | > 10 | – | – | – |
| COc1cc2c(cc1OC)C(=O)C(C(=O)OCC1CN1Cc1ccccc1)C2 (stereo not given) | > 10 | – | – | – |
| COc1cc2c(cc1OC)C(=O)C(CC1CCCCN1Cc1ccccc1)C2 (stereo not given) | 0.46 | > 100 | – | – |
| COc1cc2c(cc1OC)C(=O)C(C(=O)C1CCN(Cc3ccccc3)CC1)C2 (stereo not given) | 0.66 | 63.9 | – | – |
| COc1cc2c(cc1OC)C(=O)C(C(=O)OCC1CCN(Cc3ccccc3)CC1)C2 (stereo not given) | > 10 | – | – | – |
| COc1cc2c(cc1OC)C(=O)/C(=C/C1CN1Cc1ccccc1)C2 (stereo not given) | > 10 | – | – | – |
| COc1cc2c(cc1OC)C(=O)C(C(=O)OCC1CN(Cc3ccccc3)C1)C2 (stereo not given) | > 10 | > 100 | – | – |
| COc1cc2c(cc1OC)C(=O)/C(=C/C1CCN1Cc1ccccc1)C2 (stereo not given) | > 10 | – | – | – |
| COc1cc2c(cc1OC)C(=O)C(CC1CCN(Cc3ccccc3)CC1)C2 (stereo not given) [DONEPEZIL] | – | 15.5 | 70 to 80 | 100 |
